Measurements reported in patent publication US20250206717A1, “COMPOUND HAVING ANTI-TUMOR ACTIVITY AND USE THEREOF” (Innovstone Therapeutics Limited, priority 2021, published 2025).
Structures can show the parent of a compound that is named as a salt.

system: human B-cell non-Hodgkin lymphoma Z-138 cells; experiment: Growth inhibitory activity on Z-138 cells (CellTiter-Glo, 5 days); format: cell-based; conditions: 5 days (120H), read-out: measured cell growth inhibitory IC50 value (Z-138 cell growth)
Protocol: Vi-Cell XR cell counter, Beckmancoulter.
Cells were revived and cultured in an incubator at 37° C./5% CO2 according to the above-mentioned culturing conditions.
Periodical passaging was performed, and cell lines with good growth status in about two generations were taken for plating.
I. Cells were taken from the incubator. The cell suspension was transferred to a 50 mL centrifuge tube, and centrifuged at
800-1000 rpm for 3-5 minutes. The supernatant was discarded. An appropriate volume of culture medium was added to the centrifuge tube and gently beated to resuspend the cells evenly. Cells were counted using a Vi-Cell XR cell counter.
II. According to the measured cell density, the cell suspension was adjusted to an appropriate concentration.
III. The cell suspension was added into the 384-well plate, 40 μL/well, containing 700 cells/well, and an equal volume of culture medium without cells was added to the blank control well.
I. A compound was dissolved in 100% DMSO to formulate a 10 mM stock solution.
II. The stock solution with a concentration of 10 mM was taken, diluted with DMSO to a 2 mM solution, which was used as the starting concentration to perform a 4× gradient dilution with DMSO for 9 points.
III. 200 nL of the above compound solutions in gradient concentrations were taken and added to each well respectively.
To the blank control well and the DMSO control well were respectively added 200 nL DMSO solutions, and the final concentration of DMSO was 0.5%.
IV. The cell plate was incubated in a carbon dioxide incubator for 5 days (120H).
I. CellTiter-Glo buffer was thawed and allowed to come to room temperature.
II. A lyophilized CellTiter-Glo substrate was allowed to come to room temperature.
III. CellTiter-Glo buffer was added to a bottle of CellTiter-Glo substrate to dissolve the substrate to formulate a CellTiter-Glo working solution.
IV. The working solution was slowly vortexed to fully dissolve the contents.
V. The cell culture plate was taken and allowed to equilibrate to room temperature.
VI. […] of a mixed CellTiter Glo reagent was added to each well, oscillated for 10 minutes in the dark, and incubated for 10 minutes.
The inhibition rates (IRs) of the detected compounds were calculated according to the following formula:
IR (%)=(1−(RLUcompound−RLUblank control)/(RLUDMSO−RLUblank control)*100%,
XLFit was used to plot the efficacy inhibition rate curve, and the IC50 value was calculated using the following 4-parameter model: [fit=(A±((B−A)/(1+((C/x)^D))))].

| IC50 [nM] | SMILES |
| --- | --- |
| 65.3 | CC(=O)N1CCC(Nc2cc(C(=O)N3CC[C@@H](N4CCc5ccccc5C4)[C@H](O)C3)nc(Nc3ccccc3)n2)CC1 [Example 339] |
| 157 | Cn1cc(N2CCC(Nc3cc(C(=O)N4CC[C@@H](N5CCc6ccccc6C5)[C@H](O)C4)nc(OC4CCCC4)n3)CC2)cn1 [Example 215] |
| 1190 | CN(C)CCCOc1nc(NC2COC2)cc(C(=O)N2CC[C@@H](N3CCc4ccccc4C3)[C@H](O)C2)n1 [Example 259] |
| 5.8 | CCC(CC)Oc1nc(NC2CCN(C(=O)c3cnn(C)c3)CC2)cc(C(=O)N2CC[C@@H](N3CCc4ccccc4C3)[C@H](O)C2)n1 [Example 243] |
| 111 | CC(=O)N1CCC(Nc2cc(OC3CCCC3)nc(C(=O)N3CC[C@@H](N4CCc5ccccc5C4)[C@H](O)C3)c2)CC1 [Example 276] |
| 16 | [2H]C1([2H])CN([C@@H]2CCN(C(=O)c3cc(NC4CCN(C(=O)c5ccccc5)CC4)nc(OC(C)C)n3)C[C@H]2O)Cc2ccccc21 [Example 401, (6-((1-(benzoyl)piperidine-4-yl)amino)-2-isopropoxypyrimidine-4-yl)((3R,4R)-4-(3,4-dihydroisoquinoline-2(1H)-yl-4,4-d2)-3-hydroxypiperidine-1-1)methanone] |
| 7.4 | Cn1cc(C(=O)N2CCC(Nc3cc(C(=O)N4CC[C@@H](N5CCc6ccccc6C5)[C@H](O)C4)nc(SC4CCCC4)n3)CC2)cn1 [Example 253] |
| 12.3 | COc1nc(NC2CCN(C(=O)c3ccc(C)cc3)CC2)cc(C(=O)N2CC[C@@H](N3CCc4ccccc4C3)[C@H](O)C2)n1 [Example 392, ((3R,4R)-4-(3,4-dihydroisoquinoline-2(1H)-yl)-3-hydroxypiperidine-1-yl)(2-methoxy-6-((1-(4-methylbenzoyl)piperidine-4-yl)amino)pyrimidine-4-yl)methanone hydrochloride] |
| 60.5 | CC(C)Oc1nc(NC2CCN(C(=O)c3ccn(C)n3)CC2)cc(C(=O)N2CC[C@@H](N3CCc4ccccc4C3)[C@H](O)C2)n1 [Example 217] |

More lines, now with the values behind:

| SMILES | IC50 [nM] |
| --- | --- |
| Cc1ccc(C(=O)N2CCC(Nc3cc(C(=O)N4CC[C@@H](N5CCc6ccccc6C5)[C@H](O)C4)ncn3)CC2)cc1 [Example 171] | 11.5 |
| CC(=O)N1CC(Nc2cc(C(=O)N3CC[C@@H](N4CCc5ccccc5C4)[C@H](O)C3)nc(-c3ccccc3)n2)C1 [Example 39] | 135 |
| O=C(c1ccncn1)N1CCC(Nc2cc(C(=O)N3CC[C@@H](N4CCc5ccccc5C4)[C@H](O)C3)ncn2)CC1 [Example 170] | 62.8 |
| O=C(c1ccc(C(F)(F)F)cc1)N1CCC(Nc2cc(C(=O)N3CC[C@@H](N4CCc5ccccc5C4)[C@H](O)C3)ncn2)CC1 [Example 153] | 13.8 |
| CCC(CC)Oc1nc(NC2CCN(C(=O)c3ccccc3)CC2)cc(C(=O)N2CC[C@@H](N3CCc4ccccc4C3)[C@H](O)C2)n1 [Example 202] | 8 |
| CC(C)Oc1nc(NC2CCN(C(=O)c3cccs3)CC2)cc(C(=O)N2CC[C@@H](N3CCc4ccccc4C3)[C@H](O)C2)n1 [Example 207] | 12 |
| CC(=O)N1CCC(Nc2cc(C(=O)N3CC[C@@H](N4CCc5ccccc5C4)[C@H](O)C3)nc(-c3cc4ccccc4s3)n2)CC1 [Example 66] | 1360 |
| CC(C)COc1nc(NC2CCN(C(=O)c3ccn(C)n3)CC2)cc(C(=O)N2CC[C@@H](N3CCc4ccccc4C3)[C@H](O)C2)n1 [Example 212] | 22.2 |
| O=C(c1cc(NC2CCN(C(=O)c3cccs3)CC2)nc(OC2CCCC2)n1)N1CC[C@@H](N2CCc3ccccc3C2)[C@H](O)C1 [Example 194] | 11 |
| COCCCCNc1cc(C(=O)N2CC[C@@H](N3CCc4ccccc4C3)[C@H](O)C2)nc(-c2ccccc2)n1 (stereo in doubt) [Example 45] | 1320 |
| O=C(c1ccncc1)N1CCC(Nc2cc(C(=O)N3CC[C@@H](N4CCc5ccccc5C4)[C@H](O)C3)ncn2)CC1 [Example 165] | 33.7 |
| O=C(c1ccccc1)N1CCC(Nc2cc(C(=O)N3CC[C@@H](N4CCc5ccccc5C4)[C@H](O)C3)ncn2)CC1 [Example 158] | 19 |

system: Xenograft models of small cell lung cancer (SCLC), non-small cell lung cancer (NSCLC), acute myeloid leukemia (AML) and non-Hodgkin's lymphoma; experiment: not given; conditions: cited from earlier work

| SMILES | tumor growth inhibition |
| --- | --- |
| Nc1nc2cc(CC[C@H]3C[C@@H](n4ccc5c(N)ncnc54)[C@H](O)[C@@H]3O)ccc2cc1Br [JNJ-64619178] | up to 99% |

target: PRMT5 (Homo sapiens (Human), UniProt O14744); experiment: Inhibitory activity against PRMT5 enzyme activity ([3H]-SAM FlashPlate assay); format: biochemical; conditions: PRMT5 5 nM, [3H]-SAM 0.3 μM, polypeptide substrate 100 nM; read-out: measured enzyme inhibitory IC50 value (PRMT5 enzyme activity)
Sequence (O14744 2-637): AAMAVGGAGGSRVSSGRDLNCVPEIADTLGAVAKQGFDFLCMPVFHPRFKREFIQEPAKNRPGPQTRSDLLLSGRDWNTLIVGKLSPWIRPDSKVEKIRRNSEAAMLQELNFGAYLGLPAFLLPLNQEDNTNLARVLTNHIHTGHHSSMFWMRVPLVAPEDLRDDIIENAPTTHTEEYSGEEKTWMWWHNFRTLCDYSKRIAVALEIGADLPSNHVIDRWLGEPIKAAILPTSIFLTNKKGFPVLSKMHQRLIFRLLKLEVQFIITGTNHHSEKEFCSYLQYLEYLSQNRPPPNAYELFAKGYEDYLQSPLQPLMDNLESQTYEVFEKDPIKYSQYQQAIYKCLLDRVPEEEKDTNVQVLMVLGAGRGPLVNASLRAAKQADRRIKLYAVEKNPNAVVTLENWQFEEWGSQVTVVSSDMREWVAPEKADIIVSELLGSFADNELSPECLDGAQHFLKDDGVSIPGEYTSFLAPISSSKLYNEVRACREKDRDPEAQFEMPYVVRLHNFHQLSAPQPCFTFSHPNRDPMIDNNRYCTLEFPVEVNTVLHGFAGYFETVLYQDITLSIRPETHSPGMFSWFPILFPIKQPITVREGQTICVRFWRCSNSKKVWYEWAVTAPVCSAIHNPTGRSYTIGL
Sequence (Q9BQA1 2-342 partner): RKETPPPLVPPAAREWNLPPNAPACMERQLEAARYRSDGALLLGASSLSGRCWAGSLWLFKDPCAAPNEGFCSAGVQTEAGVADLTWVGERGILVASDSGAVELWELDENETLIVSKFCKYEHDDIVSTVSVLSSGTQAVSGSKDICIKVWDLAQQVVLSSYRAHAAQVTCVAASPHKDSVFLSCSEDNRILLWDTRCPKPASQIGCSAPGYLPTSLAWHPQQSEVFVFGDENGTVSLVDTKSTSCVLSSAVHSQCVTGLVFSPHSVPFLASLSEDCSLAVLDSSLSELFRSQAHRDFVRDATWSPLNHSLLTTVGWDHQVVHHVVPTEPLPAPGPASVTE

| IC50 [nM] | SMILES |
| --- | --- |
| 4.7 | Cc1ccc(C(=O)N2CCC(Nc3cc(C(=O)N4CC[C@@H](N5CCc6ccccc6C5)[C@H](O)C4)nc(N4CCCC4)n3)CC2)cc1 [Example 315] |
| 7.9 | [2H]C1([2H])CN([C@@H]2CCN(C(=O)c3cc(NC4CCN(C(=O)c5ccccc5)CC4)nc(OC(C)C)n3)C[C@H]2O)Cc2ccccc21 [Example 401, (6-((1-(benzoyl)piperidine-4-yl)amino)-2-isopropoxypyrimidine-4-yl)((3R,4R)-4-(3,4-dihydroisoquinoline-2(1H)-yl-4,4-d2)-3-hydroxypiperidine-1-1)methanone] |
| 4.5 | CC(C)COc1nc(NC2CCN(C(=O)c3cnn(C)c3)CC2)cc(C(=O)N2CC[C@@H](N3CCc4ccccc4C3)[C@H](O)C2)n1 [Example 213] |
| 2.8 | COc1nc(NC2CCN(C(=O)c3ccc(C)cc3)CC2)cc(C(=O)N2CC[C@@H](N3CCc4ccccc4C3)[C@H](O)C2)n1 [Example 392, ((3R,4R)-4-(3,4-dihydroisoquinoline-2(1H)-yl)-3-hydroxypiperidine-1-yl)(2-methoxy-6-((1-(4-methylbenzoyl)piperidine-4-yl)amino)pyrimidine-4-yl)methanone hydrochloride] |

Continued, molecule first:

| SMILES | IC50 [nM] |
| --- | --- |
| CC(=O)N1CCC(Nc2cc(C(=O)N3CC[C@@H](N4CCc5ccccc5C4)[C@H](O)C3)nc(C(=O)N(C)C)n2)CC1 [Example 59] | 107 |
| CC(=O)N1CCC(Nc2nc(C(=O)N3CC[C@@H](N4CCc5ccccc5C4)[C@H](O)C3)nc(-c3ccccc3)n2)CC1 [Example 70] | 66.4 |
| CC(=O)N1CCC(Nc2cc(C(=O)N3CC[C@@H](N4CCc5ccccc5C4)[C@H](O)C3)nc(C)n2)CC1 [Control Example 2, 1-(4-((6-((3R,4R)-4-(3,4-dihydroisoquinoline-2(1H)-yl)-3-hydroxypiperidine-1-carbonyl)-2-methylpyrimidine-4-yl)amino)piperidine-1-yl)ethanone] | 36 |
| C=Cc1nc(NC2CCN(C(C)=O)CC2)cc(C(=O)N2CC[C@@H](N3CCc4ccccc4C3)[C@H](O)C2)n1 [Example 46] | 29.1 |
| O=C(c1ccc(C(F)(F)F)cc1)N1CCC(Nc2cc(C(=O)N3CC[C@@H](N4CCc5ccccc5C4)[C@H](O)C3)ncn2)CC1 [Example 153] | 6.97 |
| CCC(CC)Oc1nc(NC2CCN(C(=O)c3ccccc3)CC2)cc(C(=O)N2CC[C@@H](N3CCc4ccccc4C3)[C@H](O)C2)n1 [Example 202] | 5.2 |
| CC(C)Oc1nc(NC2CCN(C(=O)c3cccs3)CC2)cc(C(=O)N2CC[C@@H](N3CCc4ccccc4C3)[C@H](O)C2)n1 [Example 207] | 3.9 |
| O=C(c1cc(NC2CCCCC2)nc(-c2ccccc2)n1)N1CC[C@@H](N2CCc3ccccc3C2)[C@H](O)C1 [Example 37] | 99.8 |
| O=C(c1ccccn1)N1CCC(Nc2cc(C(=O)N3CC[C@@H](N4CCc5ccccc5C4)[C@H](O)C3)ncn2)CC1 [Example 173] | 51.2 |
| CC(=O)N1CCC(Nc2cc(C(=O)N3CC[C@H](N4CCc5ccccc5C4)[C@@H](O)C3)nc(-c3ccccc3F)n2)CC1 [Example 12] | 35.2 |
| O=C(c1cccc(F)c1)N1CCC(Nc2cc(C(=O)N3CC[C@@H](N4CCc5ccccc5C4)[C@H](O)C3)ncn2)CC1 [Example 172] | 20.5 |
| O=C(c1cc(NC2CCN(C(=O)c3cccs3)CC2)nc(OC2CCCC2)n1)N1CC[C@@H](N2CCc3ccccc3C2)[C@H](O)C1 [Example 194] | 4.5 |
| CC(=O)N1CCC(Nc2cc(C(=O)N3CC[C@H](N4CCc5ccccc5C4)[C@@H](O)C3)nc(-n3ccnc3)n2)CC1 [Example 73] | 110 |
| CC(=O)N1CCC(Oc2cc(C(=O)N3CC[C@H](N4CCc5ccccc5C4)[C@@H](O)C3)ncn2)CC1 (relative stereo) [Example 1, trans-1-(4-((6-(4-(3,4-dihydroisoquinoline-2(1H)-yl)-3-hydroxypiperidine-1-carbonyl)pyrimidine-4-yl)oxy)piperidine-1-yl)ethane-1-one] | 65 |
| Cn1cc(C(=O)N2CCC(Nc3cc(C(=O)N4CC[C@@H](N5CCc6ccccc6C5)[C@H](O)C4)nc(OC4CCCC4)n3)CC2)cn1 [Example 193] | 6.4 |

system: not given; experiment: not given; conditions: Phase I, adult patients with solid tumors; cited from earlier work

| SMILES | PK in plasma |
| --- | --- |
| CC(=O)N1CCC(Nc2cc(C(=O)NC[C@H](O)CN3CCc4ccccc4C3)ncn2)CC1 [GSK3326595] | dose-dependent |
